Test results reported in patent publication US9423396B2, “Bodipy structure fluorescence probes for diverse biological applications” (National University of Singapore, priority 2011, dated 2016).

Test: Spectroscopic measurements (absorption, emission, quantum yield, extinction coefficient)
Type: physicochemical
Details: BDNCA library; for Abs: absorption; for Flu-Abs: difference emission minus absorption; for ε: extinction coefficient, in M-1 cm-1 (unit assumed); for Flu: fluorescence emission

Structure (SMILES): COc1ccc(Br)cc1/C=C/c1cc(C)c2n1[B-](F)(F)[N+]1=CC=CC1=C2c1ccc(NC(=O)CCl)cc1 [BDNCA-54]
- Qunt. Yield: 0.07
- Abs: 562 nm
- Flu-Abs: 19
- ε: 38,169
- Flu: 581

Structure (SMILES): CC1=CC(/C=C/c2cc(Cl)cc(Cl)c2O)=[N+]2C1=C(c1ccc(NC(=O)CCl)cc1)c1cccn1[B-]2(F)F [BDNCA-57]
- Qunt. Yield: 0.02
- Abs: 561 nm
- Flu-Abs: 16
- ε: 23,066
- Flu: 577

Structure (SMILES): COc1ccc2ccccc2c1/C=C/C1=[N+]2C(=C(c3ccc(NC(=O)CCl)cc3)c3cccn3[B-]2(F)F)C(C)=C1 [BDNCA-61]
- Qunt. Yield: 0.08
- Abs: 581 nm
- Flu-Abs: 46
- ε: 33,776
- Flu: 627

Structure (SMILES): COc1ccc(/C=C/C2=[N+]3C(=C(c4ccc(NC(=O)CCl)cc4)c4cccn4[B-]3(F)F)C(C)=C2)cc1OC [BDNCA-62]
- Qunt. Yield: 0.08
- Abs: 570 nm
- Flu-Abs: 48
- ε: 38,169
- Flu: 618

Structure (SMILES): CCOc1ccc(/C=C/C2=[N+]3C(=C(c4ccc(NC(=O)CCl)cc4)c4cccn4[B-]3(F)F)C(C)=C2)cc1OC [BDNCA-63]
- Qunt. Yield: 0.07
- Abs: 572 nm
- Flu-Abs: 51
- ε: 35,149
- Flu: 623

Structure (SMILES): CC1=CC(/C=C/c2ccc(-c3ccccc3)s2)=[N+]2C1=C(c1ccc(NC(=O)CCl)cc1)c1cccn1[B-]2(F)F [BDNCA-65]
- Qunt. Yield: 0.04
- Abs: 593 nm
- Flu-Abs: 37
- ε: 30,755
- Flu: 630

Structure (SMILES): CC1=CC(/C=C/c2c(C)c(C)c(C)c(C)c2C)=[N+]2C1=C(c1ccc(NC(=O)CCl)cc1)c1cccn1[B-]2(F)F [BDNCA-67]
- Qunt. Yield: 0.12
- Abs: 542 nm
- Flu-Abs: 40
- ε: 36,522
- Flu: 582

Structure (SMILES): CC1=CC(/C=C/c2ccc(OC(F)(F)F)cc2)=[N+]2C1=C(c1ccc(NC(=O)CCl)cc1)c1cccn1[B-]2(F)F [BDNCA-68]
- Qunt. Yield: 0.05
- Abs: 553 nm
- Flu-Abs: 20
- ε: 27,735
- Flu: 573

Structure (SMILES): CC1=CC(/C=C/c2ccc(/C=C/c3ccccc3)cc2)=[N+]2C1=C(c1ccc(NC(=O)CCl)cc1)c1cccn1[B-]2(F)F [BDNCA-69]
- Qunt. Yield: 0.09
- Abs: 577 nm
- Flu-Abs: 33
- ε: 40,641
- Flu: 610

Structure (SMILES): COc1ccc2c(OC)ccc(/C=C/C3=[N+]4C(=C(c5ccc(NC(=O)CCl)cc5)c5cccn5[B-]4(F)F)C(C)=C3)c2c1 [BDNCA-70]
- Qunt. Yield: 0.04
- Abs: 587 nm
- Flu-Abs: 90
- ε: 29,931
- Flu: 677

Structure (SMILES): CC1=CC(/C=C/c2ccoc2)=[N+]2C1=C(c1ccc(NC(=O)CCl)cc1)c1cccn1[B-]2(F)F [BDNCA-71]
- Qunt. Yield: 0.05
- Abs: 550 nm
- Flu-Abs: 20
- ε: 43,661
- Flu: 570

Structure (SMILES): CC1=CC(/C=C/c2nccn2C)=[N+]2C1=C(c1ccc(NC(=O)CCl)cc1)c1cccn1[B-]2(F)F [BDNCA-72]
- Qunt. Yield: 0.02
- Abs: 573 nm
- Flu-Abs: 45
- ε: 17,849
- Flu: 618

Structure (SMILES): CC1=CC(/C=C/c2cc(Br)ccc2O)=[N+]2C1=C(c1ccc(NC(=O)CCl)cc1)c1cccn1[B-]2(F)F [BDNCA-73]
- Qunt. Yield: 0.04
- Abs: 564 nm
- Flu-Abs: 21
- ε: 27,185
- Flu: 585

Structure (SMILES): CC1=CC(/C=C/c2ccc(OC(C)(C)C)cc2)=[N+]2C1=C(c1ccc(NC(=O)CCl)cc1)c1cccn1[B-]2(F)F [BDNCA-75]
- Qunt. Yield: 0.09
- Abs: 562 nm
- Flu-Abs: 38
- ε: 35,973
- Flu: 600

Structure (SMILES): CCCc1ccc(/C=C/C2=[N+]3C(=C(c4ccc(NC(=O)CCl)cc4)c4cccn4[B-]3(F)F)C(C)=C2)cc1 [BDNCA-77]
- Qunt. Yield: 0.09
- Abs: 559 nm
- Flu-Abs: 22
- ε: 45,034
- Flu: 581

Structure (SMILES): COc1cc(OC)c(/C=C/C2=[N+]3C(=C(c4ccc(NC(=O)CCl)cc4)c4cccn4[B-]3(F)F)C(C)=C2)c(OC)c1 [BDNCA-82]
- Qunt. Yield: 0.04
- Abs: 582 nm
- Flu-Abs: 50
- ε: 18,398
- Flu: 632

Structure (SMILES): COc1cccc(/C=C/C2=[N+]3C(=C(c4ccc(NC(=O)CCl)cc4)c4cccn4[B-]3(F)F)C(C)=C2)c1OC [BDNCA-83]
- Qunt. Yield: 0.12
- Abs: 557 nm
- Flu-Abs: 20
- ε: 40,366
- Flu: 577

Structure (SMILES): CC1=CC(/C=C/C=C(c2ccccc2)c2ccccc2)=[N+]2C1=C(c1ccc(NC(=O)CCl)cc1)c1cccn1[B-]2(F)F [BDNCA-85]
- Qunt. Yield: 0.08
- Abs: 583 nm
- Flu-Abs: 31
- ε: 49,977
- Flu: 614

Structure (SMILES): CC1=CC(/C=C/c2ccc(-c3ccccn3)cc2)=[N+]2C1=C(c1ccc(NC(=O)CCl)cc1)c1cccn1[B-]2(F)F [BDNCA-88]
- Qunt. Yield: 0.11
- Abs: 566 nm
- Flu-Abs: 18
- ε: 27,185
- Flu: 584

Structure (SMILES): Cc1cc(/C=C/c2ccc3c4c(cccc24)CC3)n2c1C(c1ccc(NC(=O)CCl)cc1)=C1C=CC=[N+]1[B-]2(F)F [BDNCA-89]
- Qunt. Yield: 0.08
- Abs: 580 nm
- Flu-Abs: 54
- ε: 33,501
- Flu: 634

Structure (SMILES): CC1=CC(/C=C/c2ccc(OCc3ccccc3)cc2)=[N+]2C1=C(c1ccc(NC(=O)CCl)cc1)c1cccn1[B-]2(F)F [BDNCA-90]
- Qunt. Yield: 0.04
- Abs: 563 nm
- Flu-Abs: 30
- ε: 20,046
- Flu: 593

Structure (SMILES): Cc1cc(/C=C/c2ccc(N(C)CCO)cc2)n2c1C(c1ccc(NC(=O)CCl)cc1)=C1C=CC=[N+]1[B-]2(F)F [BDNCA-91]
- Qunt. Yield: weak
- Abs: 559 nm
- ε: 34,050
- Flu: weak

Structure (SMILES): COc1cc(/C=C/C2=[N+]3C(=C(c4ccc(NC(=O)CCl)cc4)c4cccn4[B-]3(F)F)C(C)=C2)cc(OC)c1OC(C)=O [BDNCA-92]
- Qunt. Yield: 0.01
- Abs: 555 nm
- Flu-Abs: 24
- ε: 15,652
- Flu: 579

Structure (SMILES): CC1=CC(/C=C/c2cn(C)c3ccccc23)=[N+]2C1=C(c1ccc(NC(=O)CCl)cc1)c1cccn1[B-]2(F)F [BDNCA-94]
- Qunt. Yield: 0.02
- Abs: 548 nm
- Flu-Abs: 114
- ε: 23,890
- Flu: 662

Structure (SMILES): COc1cc(/C=C/C2=[N+]3C(=C(c4ccc(NC(=O)CCl)cc4)c4cccn4[B-]3(F)F)C(C)=C2)cc(OC)c1O [BDNCA-95]
- Qunt. Yield: 0.01
- Abs: 574 nm
- Flu-Abs: 6
- ε: 31,579
- Flu: 580

Structure (SMILES): CC1=CC(/C=C/C=C/c2ccc(N(C)C)cc2)=[N+]2C1=C(c1ccc(NC(=O)CCl)cc1)c1cccn1[B-]2(F)F [BDNCA-96]
- Qunt. Yield: weak
- Abs: 622 nm
- ε: 50,801
- Flu: weak

Structure (SMILES): CC1=CC(/C=C/c2ccc(Br)s2)=[N+]2C1=C(c1ccc(NC(=O)CCl)cc1)c1cccn1[B-]2(F)F [BDNCA-100]
- Qunt. Yield: 0.10
- Abs: 574 nm
- Flu-Abs: 23
- ε: 48,879
- Flu: 597

Structure (SMILES): CC1=CC(/C=C/c2ccc(Oc3ccccc3)cc2)=[N+]2C1=C(c1ccc(NC(=O)CCl)cc1)c1cccn1[B-]2(F)F [BDNCA-101]
- Qunt. Yield: 0.20
- Abs: 562 nm
- Flu-Abs: 27
- ε: 89,245
- Flu: 589

Structure (SMILES): CC1=CC(/C=C/c2ccc3ccc4cccc5ccc2c3c45)=[N+]2C1=C(c1ccc(NC(=O)CCl)cc1)c1cccn1[B-]2(F)F [BDNCA-103]
- Qunt. Yield: 0.04
- Abs: 598 nm
- Flu-Abs: 82
- ε: 28,558
- Flu: 680

Structure (SMILES): CC1=CC(/C=C/c2cccc(O)c2)=[N+]2C1=C(c1ccc(NC(=O)CCl)cc1)c1cccn1[B-]2(F)F [BDNCA-105]
- Qunt. Yield: 0.06
- Abs: 556 nm
- Flu-Abs: 19
- ε: 38,719
- Flu: 575

Structure (SMILES): CCN(CC)c1ccc(/C=C/C2=[N+]3C(=C(c4ccc(NC(=O)CCl)cc4)c4cccn4[B-]3(F)F)C(C)=C2)cc1 [BDNCA-107]
- Qunt. Yield: weak
- Abs: 624 nm
- ε: 56,018
- Flu: weak

Structure (SMILES): CC1=CC(/C=C/c2c(C)cc(C)cc2C)=[N+]2C1=C(c1ccc(NC(=O)CCl)cc1)c1cccn1[B-]2(F)F [BDNCA-108]
- Qunt. Yield: 0.10
- Abs: 549 nm
- Flu-Abs: 33
- ε: 39,542
- Flu: 582

Structure (SMILES): COc1ccc(/C=C/c2cc(C)c3n2[B-](F)(F)[N+]2=CC=CC2=C3c2ccc(NC(=O)CCl)cc2)cc1 [BDNCA-110]
- Qunt. Yield: 0.16
- Abs: 566 nm
- Flu-Abs: 30
- ε: 56,568
- Flu: 596

Structure (SMILES): CC(=O)Nc1ccc(/C=C/C2=[N+]3C(=C(c4ccc(NC(=O)CCl)cc4)c4cccn4[B-]3(F)F)C(C)=C2)cc1 [BDNCA-111]
- Qunt. Yield: 0.04
- Abs: 570 nm
- Flu-Abs: 29
- ε: 18,947
- Flu: 599

Structure (SMILES): CC(=O)OCCN(CCOC(C)=O)c1ccc(/C=C/C2=[N+]3C(=C(c4ccc(NC(=O)CCl)cc4)c4cccn4[B-]3(F)F)C(C)=C2)cc1 [BDNCA-114]
- Qunt. Yield: weak
- Abs: 608 nm
- ε: 42,288
- Flu: weak

Structure (SMILES): CC1=CC(/C=C/c2cc(Cl)ccc2O)=[N+]2C1=C(c1ccc(NC(=O)CCl)cc1)c1cccn1[B-]2(F)F [BDNCA-121]
- Qunt. Yield: 0.06
- Abs: 564 nm
- Flu-Abs: 21
- ε: 39,817
- Flu: 585

Structure (SMILES): CCOc1cccc(/C=C/C2=[N+]3C(=C(c4ccc(NC(=O)CCl)cc4)c4cccn4[B-]3(F)F)C(C)=C2)c1O [BDNCA-126]
- Qunt. Yield: 0.01
- Abs: 563 nm
- Flu-Abs: 15
- ε: 37,071
- Flu: 578
